One assay addresses WDR5 (Homo sapiens (Human), UniProt P61964).
Experiment: not given
The note with it: FPA and TR-FRET binding affinity, WDR5 WIN-site. For orientation: TR-FRET usually uses a lanthanide donor and a delayed reading to cut background.
Regarding `O=C(Cc1ccc(Cl)c(F)c1)N[C@@H]1CCc2ccc(-c3cn4c(n3)CCC4)cc21` [Example B15, (R)-2-(4-chloro-3-fluorophenyl)-N-(6-(6,7-dihydro-5H-pyrrolo[1,2-a]imidazol-2-yl)-2,3-dihydro-1H-inden-1-yl)acetamide], the affinity corresponds to a Ki of 2.37 nM.

`CC(=O)N1CCCC(C(=O)NC2CCc3ccc(-c4cn5c(n4)CCC5)cc32)C1` (stereo not drawn) [Example B7, 1-acetyl-N-(6-(6,7-dihydro-5H-pyrrolo[1,2-a]imidazol-2-yl)-2,3-dihydro-1H-inden-1-yl)piperidine-3-carboxamide]: the affinity corresponds to a Ki of 33 nM.

Turning to `CCC(=O)N1CCCC(C(=O)NC2CCc3ccc(-c4cn5c(n4)CCC5)cc32)C1` (stereo not drawn) [Example B8, N-(6-(6,7-dihydro-5H-pyrrolo[1,2-a]imidazol-2-yl)-2,3-dihydro-1H-inden-1-yl)-1-propionylpiperidine-3-carboxamide], the inhibition constant (Ki) (commonly the dissociation constant of the complex between target and ligand, obtained from inhibition or displacement) was found to be 21 nM.

In turn, `O=C(N[C@@H]1CCc2ccc(-c3cn4c(n3)CCC4)cc21)c1cncc(F)c1` [Example B32, (R)—N-(6-(6,7-dihydro-5H-pyrrolo[1,2-a]imidazol-2-yl)-2,3-dihydro-1H-inden-1-yl)-5-fluoronicotinamide] returned a Ki of 568 nM.

`CC(=O)N1CCCC(C(=O)N[C@@H]2CCCc3ccc(-c4cn5c(n4)CCC5)cc32)C1` (stereo partly drawn) [Example B17, 1-acetyl-N—((R)-7-(6,7-dihydro-5H-pyrrolo[1,2-a]imidazol-2-yl)-1,2,3,4-tetrahydronaphthalen-1-yl)piperidine-3-carboxamide] registered a Ki of 36.2 nM.

For `CCC(=O)N1CCCC(C(=O)N[C@@H]2CCCc3ccc(-c4cn5c(n4)CCC5)cc32)C1` (stereo partly drawn) [Example B18, N—((R)-7-(6,7-dihydro-5H-pyrrolo[1,2-a]imidazol-2-yl)-1,2,3,4-tetrahydronaphthalen-1-yl)-1-propionylpiperidine-3-carboxamide], the Ki stood at 14.3 nM.

For `Cc1ccc(C(=O)N[C@@H]2CCc3ccc(-c4cn5c(n4)CCC5)cc32)cc1O` [Example B25, (R)—N-(6-(6,7-dihydro-5H-pyrrolo[1,2-a]imidazol-2-yl)-2,3-dihydro-1H-inden-1-yl)-3-hydroxy-4-methylbenzamide], the affinity, expressed as Ki, was 710 nM.

`O=C(N[C@@H]1CCc2ccc(-c3cn4c(n3)CCC4)cc21)c1ccc(=O)[nH]c1` [Example B31, (R)—N-(6-(6,7-dihydro-5H-pyrrolo[1,2-a]imidazol-2-yl)-2,3-dihydro-1H-inden-1-yl)-6-oxo-1,6-dihydropyridine-3-carboxamide] returned an inhibitory constant (Ki) of 835 nM.

In the case of `Cc1ccc(C(=O)N[C@@H]2CCc3ccc(-c4cn5c(n4)CCC5)cc32)c(Cl)n1` [Example B28, (R)-2-chloro-N-(6-(6,7-dihydro-5H-pyrrolo[1,2-a]imidazol-2-yl)-2,3-dihydro-1H-inden-1-yl)-6-methylnicotinamide], the Ki stood at 169 nM.

`COc1cncc(C(=O)N[C@@H]2CCc3ccc(-c4cn5c(n4)CCC5)cc32)c1` [Example B26, (R)—N-(6-(6,7-dihydro-5H-pyrrolo[1,2-a]imidazol-2-yl)-2,3-dihydro-1H-inden-1-yl)-5-methoxynicotinamide]: the inhibition constant Ki amounted to 18.5 nM.

Turning to `O=C(NC1CCc2ccc(-c3cn4c(n3)CCC4)cc21)C1CCCN(C(=O)CC(F)(F)F)C1` (stereo not drawn) [Example B9, N-(6-(6,7-dihydro-5H-pyrrolo[1,2-a]imidazol-2-yl)-2,3-dihydro-1H-inden-1-yl)-1-(3,3,3-trifluoropropanoyl)piperidine-3-carboxamide], the affinity corresponds to a Ki of 90 nM.

`CC(=O)N1CCCC(C(=O)N[C@@H]2CCc3ccc(-c4cn5c(n4)CCC5)cc32)C1` (stereo partly drawn) [Example B13, 1-acetyl-N—((R)-6-(6,7-dihydro-5H-pyrrolo[1,2-a]imidazol-2-yl)-2,3-dihydro-1H-inden-1-yl)piperidine-3-carboxamide] came in with a Ki of 17.4 nM.

As to `CCOc1cccc(C(=O)NC2CCc3ccc(-c4cn5c(n4)CCC5)cc32)c1` (stereo not drawn) [Example B4, N-(6-(6,7-dihydro-5H-pyrrolo[1,2-a]imidazol-2-yl)-2,3-dihydro-1H-inden-1-yl)-3-ethoxybenzamide], the Ki was determined as 19.1 nM.

In turn, `CCC(=O)N1CCCC(C(=O)N[C@@H]2CCc3ccc(-c4cn5c(n4)CCC5)cc32)C1` (stereo partly drawn) [Example B16, N—((R)-6-(6,7-dihydro-5H-pyrrolo[1,2-a]imidazol-2-yl)-2,3-dihydro-1H-inden-1-yl)-1-propionylpiperidine-3-carboxamide] displayed an inhibition constant (Ki) of 7.16 nM.

Turning to `O=C(N[C@@H]1CCc2ccc(-c3cn4c(n3)CCC4)cc21)c1ccncc1F` [Example B30, (R)—N-(6-(6,7-dihydro-5H-pyrrolo[1,2-a]imidazol-2-yl)-2,3-dihydro-1H-inden-1-yl)-3-fluoroisonicotinamide], the affinity, expressed as Ki, was 3750 nM.

Consider `Cc1cc(Cl)nc(C(=O)N[C@@H]2CCc3ccc(-c4cn5c(n4)CCC5)cc32)c1` [Example B23, (R)-6-chloro-N-(6-(6,7-dihydro-5H-pyrrolo[1,2-a]imidazol-2-yl)-2,3-dihydro-1H-inden-1-yl)-4-methylpicolinamide], for which the affinity, expressed as Ki, was 769 nM.

On to `Cc1cc(C(=O)N[C@@H]2CCc3ccc(-c4cn5c(n4)CCC5)cc32)cc(=O)[nH]1` [Example B22, (R)—N-(6-(6,7-dihydro-5H-pyrrolo[1,2-a]imidazol-2-yl)-2,3-dihydro-1H-inden-1-yl)-6-methyl-2-oxo-1,2-dihydropyridine-4-carboxamide], for which the Ki came out at 426 nM.

On to `Cc1cnc(Cl)c(C(=O)N[C@@H]2CCc3ccc(-c4cn5c(n4)CCC5)cc32)c1` [Example B21, (R)-2-chloro-N-(6-(6,7-dihydro-5H-pyrrolo[1,2-a]imidazol-2-yl)-2,3-dihydro-1H-inden-1-yl)-5-methylnicotinamide], for which the affinity, expressed as Ki, was 22.9 nM.

Regarding `COc1cc(C)cc(C(=O)NC2CCc3ccc(-c4cn5c(n4)CCC5)cc32)c1` (stereo not drawn) [Example B5, N-(6-(6,7-dihydro-5H-pyrrolo[1,2-a]imidazol-2-yl)-2,3-dihydro-1H-inden-1-yl)-3-methoxy-5-methylbenzamide], the affinity corresponds to a Ki of 27 nM.

As for `CC(C)C(=O)N1CCCC(C(=O)NC2CCc3ccc(-c4cn5c(n4)CCC5)cc32)C1` (stereo not drawn) [Example B10, N-(6-(6,7-dihydro-5H-pyrrolo[1,2-a]imidazol-2-yl)-2,3-dihydro-1H-inden-1-yl)-1-isobutyrylpiperidine-3-carboxamide], the affinity, expressed as Ki, was 70.9 nM.

For `O=C(N[C@@H]1CCc2ccc(-c3cn4c(n3)CCC4)cc21)c1ccnc(Cl)c1` [Example B20, (R)-2-chloro-N-(6-(6,7-dihydro-5H-pyrrolo[1,2-a]imidazol-2-yl)-2,3-dihydro-1H-inden-1-yl)isonicotinamide], the affinity corresponds to a Ki of 95.6 nM.

Compound `Cc1ccc(C(=O)NC2CCc3ccc(-c4cn5c(n4)CCC5)cc32)cc1C(F)(F)F` (stereo not drawn) [Example B2, N-(6-(6,7-dihydro-5H-pyrrolo[1,2-a]imidazol-2-yl)-2,3-dihydro-1H-inden-1-yl)-4-methyl-3-(trifluoromethyl)benzamide] came in with an inhibition constant (Ki) of 1380 nM.

On to `COc1cccc(C(=O)N(CC2CC2)C2CCc3ccc(-c4cn5c(n4)CCC5)cc32)c1` (stereo not drawn) [Example B1, N-(cyclopropylmethyl)-N-(6-(6,7-dihydro-5H-pyrrolo[1,2-a]imidazol-2-yl)-2,3-dihydro-1H-inden-1-yl)-3-methoxybenzamide], for which the Ki was 693 nM.

For `COc1cc(C(=O)N[C@@H]2CCN(C(C)=O)c3ccc(-c4cn5c(n4)CCC5)cc32)ccc1C` [Example B33, (R)—N-(1-acetyl-6-(6,7-dihydro-5H-pyrrolo[1,2-a]imidazol-2-yl)-1,2,3,4-tetrahydroquinolin-4-yl)-3-methoxy-4-methylbenzamide], the affinity corresponds to a Ki of 22.2 nM.

As for `CC(=O)Nc1cc(C(=O)N[C@@H]2CCc3ccc(-c4cn5c(n4)CCC5)cc32)ccc1C` [Example B27, (R)-3-acetamido-N-(6-(6,7-dihydro-5H-pyrrolo[1,2-a]imidazol-2-yl)-2,3-dihydro-1H-inden-1-yl)-4-methylbenzamide], the Ki is 730 nM.

Take `COc1ccc(C(=O)N[C@@H]2CCc3ccc(-c4cn5c(n4)CCC5)cc32)cn1` [Example B19, (R)—N-(6-(6,7-dihydro-5H-pyrrolo[1,2-a]imidazol-2-yl)-2,3-dihydro-1H-inden-1-yl)-6-methoxynicotinamide]: the affinity corresponds to a Ki of 172 nM.

A further assay concerns MV4,11 human leukemia cells. Briefly: cells. The conditions noted are these: MV4-11, 168 h. On the procedure:
Anti-Proliferative Activity Using MLL-Harboring and Non-MLL Cell Lines.
Viability assays are performed by dispensing 5,000 cells into each well of an opaque 96-well plate and adding compounds at the indicated concentrations in a final volume of 100 μL and a final concentration of DMSO of 0.1% for all samples. After a set incubation period, either a 3 day or 7 day protocol, the viability of cells in each well is assessed using the CellTiter-Glo assay (Promega), read on a GloMax 96 Microplane Luminometer (Promega). Serial dilutions of each cell type are included in all assays to generate standard curves and determine assay measurements are taken within the dynamic range of the instrument. GI50 values are calculated based on three biological replicates, each with three technical replicates. Data are expressed as mean plus/minus S.E.M.
As to `COc1cc(C(=O)N[C@@H]2CCc3ccc(-c4cn5c(n4)CCC5)cc32)ccc1C` [Example B12, (R)—N-(6-(6,7-dihydro-5H-pyrrolo[1,2-a]imidazol-2-yl)-2,3-dihydro-1H-inden-1-yl)-3-methoxy-4-methylbenzamide], the GI50 (in general, the concentration giving 50% growth inhibition) was found to be 17200 nM.

On to `COc1cc(C(=O)N[C@@H]2CCCc3ccc(-c4cn5c(n4)CCC5)cc32)ccc1C` [Example B14, (R)—N-(7-(6,7-dihydro-5H-pyrrolo[1,2-a]imidazol-2-yl)-1,2,3,4-tetrahydronaphthalen-1-yl)-3-methoxy-4-methylbenzamide], for which halving of growth (GI50) required 22300 nM.

Compound `COc1cc(C(=O)N[C@@H]2CCc3ccc(-c4cn5c(n4)CCC5)cc32)cc(OC)c1C` [Example B29, (R)—N-(6-(6,7-dihydro-5H-pyrrolo[1,2-a]imidazol-2-yl)-2,3-dihydro-1H-inden-1-yl)-3,5-dimethoxy-4-methylbenzamide] registered a 50% growth inhibitory concentration (GI50) of 7250 nM.

Take `O=C(Cc1ccc(Cl)c(Cl)c1)N[C@@H]1CCc2ccc(-c3cn4c(n3)CCC4)cc21` [Example B11, (R)-2-(3,4-dichlorophenyl)-N-(6-(6,7-dihydro-5H-pyrrolo[1,2-a]imidazol-2-yl)-2,3-dihydro-1H-inden-1-yl)acetamide]: the GI50 came out at 8890 nM.
